Results from patent US4542153A, “Methods for changing calcium metabolism within the cells of a mammal” (The Ohio State University Research Foundation, priority 1983, dated 1985).

Experiments:
mice = assay: Toxicity Tests (intraperitoneal LD50); assay type: in vivo; conditions: i.p., table: mean values and 95% confidence limits
[1] = tested on: thoracic aorta strips contracted with norepinephrine; assay: Vasodilator activity: norepinephrine-contracted aortic strips; assay type: cell-based, male Sprague-Dawley rats
Source text: Pr-MDI, bu-MDI, Q-bu-MDI and the compounds of Formulae IIIA, IIIB and IVA having the two R1 groups together forming a methylene group, each R3 a methyl group and R2 an n-propyl group or n-butyl group (the compounds of Formula III are hereinafter abbreviated as sat-pr-MDI and sat-bu-MDI respectively, reference being made where necessary to the cis isomer of Formula III A or the trans isomer of Formula III B while the compounds of Formula IV are similarly referred to as cis sat-Q-pr-MDI and cis sat-Q-bu-MDI) were tested for vasodilator activity by the method of R. F. Furchgott and S. Bhadrakom, J. P. Pharmacol. Ex. Ther., 108, 129-143 (1953).
The vasodilator activity tests were conducted on male Sprague-Dawley rats, obtained from Harlan Industries, Inc., Cumberland, Indiana. The rats, weight 250-300 g., were sacrified by cervical dislocation and a 2.5 cm. segment of the thoracic aorta was removed and rinshed in physiological buffer. Each aortic segment was cleaned of connective tissue and cut spirally two yield to strips, each 3 by 15 mm. Each strip was mounted isometrically under a tension of 1 g in a 10 ml. tissue bath thermostatically maintained at 37° C. and containing a normal physiological solution aerated with a 95% oxygen/5% carbon dioxide mixture. Forces generated by the strip were monitored using a Grass FT03 isometric transducer coupled to a Grass module 7D polygraph recorder, both the transducer and the recorder being obtained from Grass Instrument Co., of Quincy, Mass.
After the aortic tissue had been allowed to equilibriate for 1-1.5 hours in the normal physiologic solution, tissue contraction was induced by introducing either 10^-7 M norepinephrine or 40mM potassium chloride buffer to the tissue bath.
To avoid interference by loss of tension due to time dependent tissue fatigue, separate preliminary experiments were performed to determine the degree of tissue relaxation due to such fatigue and the value of the control tension generated by norepinephrine or potassium chloride prior to the addition of the test compounds was adjusted whenever the duration of the experiment was such that fatigue could be expected to cause more than a 6% loss of tension. […] All concentrations mentioned hereinafter represent the final concentration of the test compound after dilution in the tissue bath.
The figures of concentration against percent response data obtained from each aortic tissue were transformed to its appropriate probit value and IC50 values were then estimated using linear regression analysis. The normal physiological solution contained 6.9 g/l of sodium chloride, 0.35 g/l of potassium chloride, 0.11 g/l of magnesium chloride hexahydrate, 0.138 g/l of sodium dihydrogen phosphate, 2.1 g/l of sodium bicarbonate, 0.01 g/l of EDTA, 0.368 g/l of calcium chloride dihydrate and 2.0 g/l of dextrose. The high potassium buffers were obtained by substituting potassium chloride for sodium chloride on an equimolar basis to maintain tonicity.

[2] = tested on: calcium-induced arrhythmias in rats; assay: Calcium-induced arrhythmias (CaCl2 injected i.v. into anesthetized rats)
Source text: The experimental method used was that described in Lynch J. J., Rahwan R. G., Witiak D. T.: Effects of 2-substituted-3-dimethylamino-5,6-methylenedioxyindenes on calcium-inducedarrhythmias, J. Cardiovasc. Pharmacol. 3: 49-60 (1981). Male Sprague-Dawley rats weighing 180-250 grams were anesthetized with sodium pentobarbital and a cannula was inserted into the left jugular vein for drug administration. Electrocardiograph equipment was connected to the rat and the lead II was continuously monitored. The compound under test, dissolved in 5% dextrose solution, was administered into the jugular vein of anesthetized rats over a 40 second period. Ten minutes after this treatment, an acute dose of 1 ml/kg of a 10% CaCl2.2H2 O solution was injected into the jugular vein over a period of 10 seconds. The arrhythmias resulting from the calcium administration were graded according to the following criteria: (a) initial change in heart rate following calcium administration; (b) incidences of sinoatrial block, atrioventricular block, ectopic beats, and ventricular flutter and fibrillation; (c) time required for reversion to control ECG; and (d) incidence of mortality.

arrhythmia in mammals = conditions: in vivo

SMILES: CCCCC1=Cc2cc3c(cc2C1[N+](C)(C)C)OCO3.[I-] (stereo not shown) [Q-bu-MDI, 2-Butyl-5,6-methylenedioxyindene-1-trimethylammonium iodide]
- LD50 (mice): 65 mg/kg
- relaxation of the aortic tissue ([1]; norepinephrine- or KCl-treated tissue): relaxed the aortic tissue
- comparative vasodilator activity, norepinephrine-treated tissue ([1]; norepinephrine-treated aortic tissue): less active in vitro than their tertiary analogs
- IC50 ([1]; rat aorta contracted with 10^-7 M norepinephrine, read-out: IC50 (mean and range of SEM) Norepinephrine): 128 µM
- mortality rate ([2]; 0.5 mg/kg, i.v.): zero
- protection against arrhythmia ([2]; 0.5 mg/kg, i.v.): almost complete protection
- protection against calcium-induced mortality ([2]; 0.5 mg/kg, i.v.): complete protection against calcium-induced mortality
- protection against the calcium-induced bradycardia ([2]; 0.5 mg/kg, i.v.): partial protection
- time for reversion to a normal electrocardiogram ([2]; 0.5 mg/kg, i.v.): significantly reduced
- effectiveness in suppressing arrhythmias relative to pr-MDI and bu-MDI ([2]; calcium-induced arrhythmias): 7-8 times
- concentration effective against calcium-induced arrhythmias ([2]; i.v., 10 min before CaCl2): 0.5 mg/kg
- deleterious side effects ([2]; i.v., Q-bu-MDI at 0.5 mg/kg, pr-MDI and bu-MDI at 3.75 mg/kg): no substantial deleterious side effects
- effectiveness relative to tertiary analog (bu-MDI), average over tests (arrhythmia in mammals): about four
